In patent publication US11529321B2, “Use of aminomethylenecyclohexane-1,3-dione compound” (WIGEN BIOMEDICINE TECHNOLOGY (SHANGHAI) CO., LTD., priority 2017, dated 2022):

target: LC3B (Homo sapiens (Human), UniProt Q9GZQ8); test: Fluorescence polarization assay, GST-LC3B with FITC-labeled peptide
Description: Then the resulting mixture was incubated at 25° C. in the dark.

Structure (SMILES)	IC50 [µM]
CN(C)C=C1C(=O)CC(c2ccccc2)CC1=O (centres unmarked) [Compound 1, 2-((Dimethylamino)Methylene)-5-Phenyl-Cyclohexane-1,3-Dione]	3 to 15
O=C1CC(c2ccccc2)CC(=O)C1=CNc1ccccc1 (centres unmarked) [Compound 11, 5-Phenyl-2-((Phenylamino)Methylene)-Cyclohexane-1,3-Dione]	15 to 100
Cc1n[nH]c(NC=C2C(=O)CC(C)(C)CC2=O)c1-c1ccccc1 [Compound 17]	100 to 1000
CN(C)C=C1C(=O)CC2(CC2)CC1=O [Compound 22]	100 to 1000
CNC(=O)NC=C1C(=O)CCCC1=O [Compound 25]	100 to 1000
Cc1ccc(S(=O)(=O)NNC=C2C(=O)CCCC2=O)cc1 [Compound 26]	100 to 1000
CC1(C)CC(=O)C(=CNCCN2CCN(C(=O)Cc3ccc(F)cc3)CC2)C(=O)C1 [Compound 46]	100 to 1000
O=c1c(=CNc2ccccc2)c(=O)c2cccc3cccc1c32 [Compound 61]	15 to 100
